# Measurements from patent US10420761B2, “Allosteric inhibitors of thymidylate synthase” (UNIVERSITY OF FLORIDA RESEARCH FOUNDATION, INCORPORATED, priority 2013, dated 2019).
# Like-named read-outs stand apart in the source and are kept apart here.
# Assays:
# [1] = test system: pancreatic neuroendocrine cell line CM (insulinoma); assay: MTS cell viability assay, CM; type: cell-based
# Protocol: (§1) Antiproliferative effects of 27 novel TS inhibitors were tested by MTS assay (Promega) in human cancer cell lines representing several major tumor types known to overexpress TS including lung, cervical, pancreatic and hematopoietic tumors. Six compounds (S, U, P, M, G and J) reduced cell viability by more than 40% in both human cervical cancer HeLa (FIG. 6) and myelogenous leukemia K562 cell lines (FIG. 7).
# (§2) Complete dose response relationships for five most promising compounds (P, U, S, M and G) have been established in pancreatic neuroendocrine cancer, pancreatic ductal cancer and small cell lung cancer cell lines (Table 3). […] In pancreatic neuroendocrine tumors Bon1 and CM—the range was larger with GI50 values within 0.1-100 μM (FIGS. 10, 11). Such discrepancy in response to drugs between Bon1 and CM cells can be explained at least in part by different tumor type of these cells. CM cells were derived from insulinoma, a typical beta cell tumor that secrets insulin while Bon cells are carcinoid tumors derived from lymph nodes that produce serotonin.
# (§3) 27 top scoring compounds that were identified by in silico screening were tested in human cancer cell lines. Cancer cell lines used for inhibitor testing were maintained under 70% confluency in appropriate cell culture medium (typically DMEM, supplemented with 10% FBS, and 1% pen-strep). Small molecule compounds were obtained from NCI DTP, resuspended in DMSO to generate 50 mM stocks and stored in the dark. In all experiments, fresh compound preparations were used whenever possible and no more than 2 freeze-thaw cycles were allowed for all drug tested. Cells were seeded in 96-well plates in quadruplicates (4 wells/condition) at 4000 cells/well. Compound solutions were freshly prepared in the appropriate cell culture medium and were added the following morning to the cells. After 72-hour incubation with the compound, cell proliferation was measured by MTS assays (Promega) and compared to that of the untreated cells or control drug, such as 5-FU or pemetrexed. Dose-response parameters were determined by plotting percent cell proliferation after treatment from at least eight different compound concentrations and by using non-linear regression fit (4-parameter dose-response) in Sigmaplot. All results shown are representative of at least 3 independent experiments.
# [2] = test system: small cell lung cancer cell line H1048; assay: MTS cell viability assay, H1048; type: cell-based; conditions: Homo sapiens, NCI-H1048
# Protocol: as §1, §2, §3
# [3] = test system: pancreatic neuroendocrine cell line Bon1; assay: MTS cell viability assay, Bon-1; type: cell-based
# Protocol: as §1, §2, §3
# [4] = test system: pancreatic ductal adenocarcinoma cell line Panc-1; assay: MTS cell viability assay, Panc-1; type: cell-based; conditions: Homo sapiens, PDAC, 72-hour incubation, unit inferred
# Protocol: as §1, §2, §3
# [5] = test system: small cell lung cancer cell line H1607; assay: MTS cell viability assay, H1607; type: cell-based; conditions: Homo sapiens, SCLC, 72-hour incubation, unit inferred
# Protocol: as §1, §2, §3
# [6] = test system: pancreatic ductal adenocarcinoma cell line Miapaca-2; assay: MTS cell viability assay, MiaPaca-2; type: cell-based; conditions: Homo sapiens, MIA PaCa-2, PDAC, 72-hour incubation, unit inferred
# Protocol: as §1, §2, §3
# human cancer cell lines = assay: MTS cell viability assay, statements over several cell lines; type: cell-based; conditions: for GI50: Homo sapiens
# Protocol: as §1, §2
# (§4) We also tested the compounds S, U and P in mouse histiocytic sarcoma cell line that was derived from genetically engineered mouse model with p16 deletion and activated hTS overexpression. […] Dose-response curves and GI50 values for all compounds tested can be found in Table 3 and FIGS. 8-13.
# as §3
# [7] = type: in vivo
# Protocol: To establish the maximum tolerated dose (MTD) for most promising new inhibitors, both immunodeficient SCID and immunocompetent FVB.129 mice were treated daily with compound S and methylated version of compound S at 12.5, 50, and 100 MKG (mg/kg) by i.p. injection (Tables 4 and 5). SCID immunodeficient mice were i.p. injected daily for 3 weeks and kept under observation for one additional week. Animals' weights were measured daily and the data is presented as the percentage of weight change from day 1 of treatment to day 28 at the termination of the experiment (Table 4). FVB.129 immunocompetent mice were i.p. injected daily for 2 weeks and kept under observation for one additional week. Animals' weights were measure daily and the data is presented as the percentage of weight change from day 1 of treatment to day 21 at the termination of the experiment (Table 5).
# The SCID immunodeficient mice were i.p. injected daily for 3 weeks and kept under observation for one additional week. Animals' weights were measured daily and the data are presented as the percentage of weight change from day 1 of treatment to day 28 at the termination of the experiment (Table 4). The MTD for SCID mice for both compounds was 50 MKG. The FVB.129 immunocompetent mice were i.p. injected daily for 2 weeks and kept under observation for one additional week. Animals' weights were measured daily and the data are presented as the percentage of weight change from day 1 of treatment to day 21 at the termination of the experiment (Table 5). […] Thus, we have identified a derivative of compounds S that is less toxic to immunocompetent FVB.129 mice.
# in vivo = assay: in vivo
# Protocol: (§5) SCID immunodeficient mice were i.p. injected daily for 3 weeks and kept under observation for one additional week. Animals' weights were measured daily and the data is presented as the percentage of weight change from day 1 of treatment to day 28 at the termination of the experiment (Table 4). FVB.129 immunocompetent mice were i.p. injected daily for 2 weeks and kept under observation for one additional week. Animals' weights were measure daily and the data is presented as the percentage of weight change from day 1 of treatment to day 21 at the termination of the experiment (Table 5).
# as §5, with “The SCID immunodeficient” for “SCID immunodeficient”, “the data are presented as” for “the data is presented as”, “(Table 4). […] The FVB.129 immunocompetent” for “(Table 4). FVB.129 immunocompetent”, “weights were measured daily and” for “weights were measure daily and”
# [8] = test system: mouse histiocytic sarcoma cell line 5278mHS (p16 deletion, activated hTS); assay: MTS cell viability assay, mouse histiocytic sarcoma; type: cell-based
# Protocol: as §4, §3
# [9] = PNET, 72-hour incubation, MTS, unit inferred, read-out: GI50 CM
# [10] = SCLC, 72-hour incubation, MTS, unit inferred, read-out: GI50 H1048
# [11] = PNET, 72-hour incubation, MTS, unit inferred, read-out: GI50 Bon-1
# [12] = NCI-H1048, range over small cell lung cancer cell lines H1607 and H1048 and the five compounds, read-out: GI50 values in the range
# [13] = range over pancreatic ductal adenocarcinoma cell lines Miapaca-2 and Panc-1 and the five compounds, read-out: GI50 values between
# [14] = up to, over the tested cell lines
# [15] = mouse histiocytic sarcoma cell line, range over compounds S, U and P, read-out: GI50 values from
# [16] = mouse histiocytic sarcoma, MTS, unit inferred, read-out: GI50 5278mHS
"GI50 [1, 9] [µM]","GI50 [2, 10] [µM]",GI50 [4] [µM],GI50 [5] [µM],GI50 [6] [µM],GI50 (human cancer cell lines; [12]) [µM],GI50 (human cancer cell lines; [13]) [µM],"GI50 [8, 15] [µM]","GI50 [8, 16] [µM]",SMILES,"GI50 [3, 11] [µM]",fold lower GI50 than 5-FU (human cancer cell lines; [14]),fold lower GI50 than pemetrexed (human cancer cell lines; [14]),"GI50 ([1]; CM (insulinoma), read-out: GI50) [µM]","GI50 ([2]; H1048 (SCLC), read-out: GI50) [µM]","GI50 ([3]; Bon1 cells, read-out: GI50) [µM]","animal found dead, D6 ([7]; FVB.129 mice, 50 MKG i.p. daily, single mice)","animal found dead, D5 ([7]; FVB.129 mice, 100 MKG i.p. daily, single mice)","day after treatment at which animals died ([7]; FVB.129, mouse, in vivo, ip, 2 weeks) [days]","animal found dead, D2 (in vivo; SCID mice, 100 MKG i.p. daily, single mice)","MTD at 3 weeks (in vivo; SCID, mouse, in vivo, ip, MTD) [mg/kg]"
16,2.3,11,36,8.1,,,,,"O=c1[nH]cc(F)c(=O)[nH]1 [Compound 5-FU, 5-fluorouracil, reference compound]",7.6,,,,,,,,,,
32,4.3,15,29,9.7,0.09 to 29,0.5 to 24,,,"CN(Cc1ccoc1)Cc1nnc(SCCOc2ccccc2)n1C [Compound G, 1-(furan-3-yl)-N-methyl-N-((4-methyl-5-((2-phenoxyethyl)thio)-4H-1,2,4-triazol-3-yl)methyl)methanaminium]",0.39,,,,,,,,,,
29,16,15,2.6,24,0.09 to 29,0.5 to 24,,,"COc1ccc(Cc2c[nH]cc3c(=O)c(OC)ccc2-3)cc1O [Compound M, 4-(3-hydroxy-4-methoxybenzyl)-7-methoxyisoquinolin-8(2H)-one]",26,,,,,,,,,,
16,16,8.4,8.6,7,0.09 to 29,0.5 to 24,0.4 to 20,2.3,"O[C@@H](c1cc(C(F)(F)F)nc2c(C(F)(F)F)cccc12)C1CCCCN1 (stereo partly drawn) [P, (1S)-(2,8-bis(trifluoromethyl)quinolin-4-yl)(piperidin-2-yl)methanol]",7.6,,,,,,,,,,
0.087,0.13,> 200,> 200,> 200,,,,,"Nc1nc2[nH]cc(CCc3ccc(C(=O)N[C@@H](CCC(=O)O)C(=O)O)cc3)c2c(=O)[nH]1 [Pemetrexed, pemetrexed, reference compound]",> 200,,,,,,,,,,
13,3.1,1.3,2.5,12,0.09 to 29,0.5 to 24,0.4 to 20,21,"CCN(CC)C1=CC(=O)/C(=N/Nc2cc(Br)ccn2)C=C1 [U, (E)-6-(2-(4-bromopyridin-2-yl)hydrazono)-3-(diethylamino)cyclohexa-2,4-dienone]",2.4,,,,,,,,,,

SMILES,"GI50 [1, 9] [µM]","GI50 [2, 10] [µM]",GI50 [4] [µM],GI50 [5] [µM],GI50 [6] [µM],GI50 (human cancer cell lines; [12]) [µM],GI50 (human cancer cell lines; [13]) [µM],"GI50 [8, 15] [µM]","GI50 [8, 16] [µM]","GI50 [3, 11] [µM]",fold lower GI50 than 5-FU (human cancer cell lines; [14]),fold lower GI50 than pemetrexed (human cancer cell lines; [14]),"GI50 ([1]; CM (insulinoma), read-out: GI50) [µM]","GI50 ([2]; H1048 (SCLC), read-out: GI50) [µM]","GI50 ([3]; Bon1 cells, read-out: GI50) [µM]","animal found dead, D6 ([7]; FVB.129 mice, 50 MKG i.p. daily, single mice)","animal found dead, D5 ([7]; FVB.129 mice, 100 MKG i.p. daily, single mice)","day after treatment at which animals died ([7]; FVB.129, mouse, in vivo, ip, 2 weeks) [days]","animal found dead, D2 (in vivo; SCID mice, 100 MKG i.p. daily, single mice)","MTD at 3 weeks (in vivo; SCID, mouse, in vivo, ip, MTD) [mg/kg]"
"CCc1nc(N)nc(N)c1-c1ccc(N(C)Cc2ccccc2)c([N+](=O)[O-])c1 [Compound S, 5-[4-[benzyl(methyl)amino]-3-nitrophenyl]-6-ethylpyrimidine-2,4-diamine]",0.093,0.096,0.93,8.2,0.48,0.09 to 29,0.5 to 24,0.4 to 20,0.42,100,up to 169 fold,up to 416 fold,0.093,0.096,100,FDN,FDN,6,FDN,≥ 50
